From ChEMBL document CHEMBL3792355, “Novel pyrazole derivatives with oxa/thiadiazolyl, pyrazolyl moieties and pyrazolo[4,3-d]-pyrimidine derivatives as potential antimicrobial and anticancer agents” (Bioorg Med Chem Lett, 2016)
Converted amounts (≈) assume the structure as drawn.

Experiments:
[1] = system: Candida albicans; assay: Antimicrobial activity against Candida albicans ATCC 14154 at 1 mg/ml incubated for 24 hrs by cup diffusion assay; assay type: functional; conditions: for zone of inhibition at 1000 µg/mL: ATCC 14154, 24 h, read-out: DIZ
[2] = system: MCF7; assay: Growth inhibition of human MCF7 cells incubated for 48 hrs by MTT assay; assay type: functional, cell-based; conditions: MCF7, 48 h
[3] = system: Aspergillus flavus; assay: Antimicrobial activity against Aspergillus flavus ATCC 23554 at 1 mg/ml incubated for 24 hrs by cup diffusion assay; assay type: functional; conditions: for zone of inhibition at 1000 µg/mL: ATCC 23554, 24 h, read-out: DIZ
[4] = system: HT-29; assay: cells; conditions: Homo sapiens, HT-29, 48 h
[5] = system: Candida albicans; assay: Antimicrobial activity against Candida albicans ATCC 14154 incubated for 24 hrs by CLSI/NCCLS protocol based method; assay type: functional
[6] = system: Staphylococcus aureus; assay: Antimicrobial activity against Staphylococcus aureus ATCC 25923 incubated for 24 hrs by CLSI/NCCLS protocol based method; assay type: functional; conditions: ATCC 25923, 24 h
[7] = system: Pseudomonas aeruginosa; assay: Antimicrobial activity against Pseudomonas aeruginosa ATCC 27853 incubated for 24 hrs by CLSI/NCCLS protocol based method; assay type: functional; conditions: ATCC 27853, 24 h
[8] = system: Pseudomonas aeruginosa; assay: Antimicrobial activity against Pseudomonas aeruginosa ATCC 27853 at 1 mg/ml incubated for 24 hrs by cup diffusion assay; assay type: functional; conditions: ATCC 27853, 24 h, read-out: DIZ
[9] = system: Aspergillus flavus; assay: Antimicrobial activity against Aspergillus flavus ATCC 23554 incubated for 24 hrs by CLSI/NCCLS protocol based method; assay type: functional
[10] = system: Lactococcus lactis; assay: Antimicrobial activity against Streptococcus lactis ATCC 14591 at 1 mg/ml incubated for 24 hrs by cup diffusion assay; assay type: functional; conditions: ATCC 14591, 24 h, read-out: DIZ
[11] = system: Escherichia coli; assay: Antimicrobial activity against Escherichia coli ATCC 25922 incubated for 24 hrs by CLSI/NCCLS protocol based method; assay type: functional; conditions: ATCC 25922, 24 h
[12] = system: Lactococcus lactis; assay: Antimicrobial activity against Streptococcus lactis ATCC 14591 incubated for 24 hrs by CLSI/NCCLS protocol based method; assay type: functional; conditions: ATCC 14591, 24 h
[13] = system: Staphylococcus aureus; assay: Antimicrobial activity against Staphylococcus aureus ATCC 25923 at 1 mg/ml incubated for 24 hrs by cup diffusion assay; assay type: functional; conditions: ATCC 25923, 24 h, read-out: DIZ
[14] = system: Escherichia coli; assay: Antimicrobial activity against Escherichia coli ATCC 25922 at 1 mg/ml incubated for 24 hrs by cup diffusion assay; assay type: functional; conditions: ATCC 25922, 24 h, read-out: DIZ
[15] = system: HepG2; assay: cells; conditions: Homo sapiens, HepG2, 48 h

Cc1csc(NNC(=O)c2[nH]nc(-c3ccc(Cl)cc3)c2N)n1
zone of inhibition at 1000 µg/mL [1]: 26 mm
IC50 [2]: 0.22 µM
zone of inhibition at 1000 µg/mL [3]: 28 mm
IC50 [4]: 0.42 µM
MIC ([5]; ATCC 14154, 24 h): 40 µg/mL (≈ 115 µM)
MIC [6]: 15 µg/mL (≈ 43 µM)
MIC [7]: 15 µg/mL (≈ 43 µM)
zone of inhibition at 1000 µg/mL [8]: 12 mm
MIC ([9]; ATCC 23554, 24 h): 45 µg/mL (≈ 129 µM)
zone of inhibition at 1000 µg/mL [10]: 22 mm
MIC [11]: 20 µg/mL (≈ 57.3 µM)
MIC [12]: 10 µg/mL (≈ 28.7 µM)
zone of inhibition at 1000 µg/mL [13]: 28 mm
zone of inhibition at 1000 µg/mL [14]: 16 mm
IC50 [15]: 0.56 µM

NYSTATIN
inhibition zone (IZ) [1]: 25 mm
inhibition zone (IZ) [3]: 30 mm
MIC [5]: 20 µg/mL
MIC [9]: 25 µg/mL

Cc1cc(C)n(C(=O)c2[nH]nc(-c3ccc(Cl)cc3)c2N)n1
zone of inhibition at 1000 µg/mL [1]: 18 mm
IC50 [2]: 1.45 µM
zone of inhibition at 1000 µg/mL [3]: 26 mm
IC50 [4]: 1.45 µM
MIC [6]: 25 µg/mL (≈ 79.2 µM)
MIC [7]: 15 µg/mL (≈ 47.5 µM)
zone of inhibition at 1000 µg/mL [8]: 20 mm
zone of inhibition at 1000 µg/mL [10]: 30 mm
MIC [11]: 20 µg/mL (≈ 63.3 µM)
MIC [12]: 15 µg/mL (≈ 47.5 µM)
zone of inhibition at 1000 µg/mL [13]: 32 mm
zone of inhibition at 1000 µg/mL [14]: 22 mm
IC50 [15]: 1.62 µM

Cc1nc2c(-c3ccc(Cl)cc3)n[nH]c2c2nnnn12
zone of inhibition at 1000 µg/mL [1]: 22 mm
IC50 [2]: 0.13 µM
zone of inhibition at 1000 µg/mL [3]: 26 mm
IC50 [4]: 0.29 µM
MIC ([5]; ATCC 14154, 24 h): 22 µg/mL (≈ 77 µM)
MIC [6]: 20 µg/mL (≈ 70 µM)
MIC [7]: 15 µg/mL (≈ 52.5 µM)
zone of inhibition at 1000 µg/mL [8]: 8 mm
zone of inhibition at 1000 µg/mL [10]: 20 mm
MIC [11]: 10 µg/mL (≈ 35 µM)
MIC [12]: 10 µg/mL (≈ 35 µM)
zone of inhibition at 1000 µg/mL [13]: 18 mm
zone of inhibition at 1000 µg/mL [14]: 10 mm
IC50 [15]: 0.36 µM

NC(=S)NNC(=O)c1[nH]nc(-c2ccc(Cl)cc2)c1N
zone of inhibition at 1000 µg/mL [1]: 20 mm
IC50 [2]: 4.35 µM
zone of inhibition at 1000 µg/mL [3]: 25 mm
IC50 [4]: 5.59 µM
MIC ([5]; ATCC 14154, 24 h): 50 µg/mL (≈ 161 µM)
MIC [6]: 30 µg/mL (≈ 96.5 µM)
MIC [7]: 40 µg/mL (≈ 129 µM)
zone of inhibition at 1000 µg/mL [8]: 16 mm
MIC ([9]; ATCC 23554, 24 h): 45 µg/mL (≈ 145 µM)
zone of inhibition at 1000 µg/mL [10]: 30 mm
MIC [11]: 25 µg/mL (≈ 80.4 µM)
MIC [12]: 35 µg/mL (≈ 113 µM)
zone of inhibition at 1000 µg/mL [13]: 34 mm
zone of inhibition at 1000 µg/mL [14]: 22 mm
IC50 [15]: 4.06 µM

CO/N=C(\C(=O)N[C@@H]1C(=O)N2C(C(=O)O)=C(COC(C)=O)CS[C@H]12)c1csc(N)n1 [CEFOTAXIME]
MIC [6]: 15 µg/mL (≈ 32.9 µM)
MIC [7]: 10 µg/mL (≈ 22 µM)
zone of inhibition at 1000 µg/mL [8]: 18 mm
zone of inhibition at 1000 µg/mL [10]: 30 mm
MIC [11]: 13 µg/mL (≈ 28.5 µM)
MIC [12]: 12 µg/mL (≈ 26.3 µM)
zone of inhibition at 1000 µg/mL [13]: 31 mm
zone of inhibition at 1000 µg/mL [14]: 26 mm

CC1=NN(C(=O)c2[nH]nc(-c3ccc(Cl)cc3)c2N)C(=O)C1
zone of inhibition at 1000 µg/mL [1]: 18 mm
IC50 [2]: 2.54 µM
zone of inhibition at 1000 µg/mL [3]: 35 mm
IC50 [4]: 2.78 µM
MIC ([5]; ATCC 14154, 24 h): 35 µg/mL (≈ 110 µM)
MIC [6]: 30 µg/mL (≈ 94.4 µM)
MIC [7]: 20 µg/mL (≈ 62.9 µM)
zone of inhibition at 1000 µg/mL [8]: 20 mm
MIC ([9]; ATCC 23554, 24 h): 40 µg/mL (≈ 126 µM)
zone of inhibition at 1000 µg/mL [10]: 26 mm
MIC [11]: 25 µg/mL (≈ 78.7 µM)
MIC [12]: 20 µg/mL (≈ 62.9 µM)
zone of inhibition at 1000 µg/mL [13]: 32 mm
zone of inhibition at 1000 µg/mL [14]: 22 mm
IC50 [15]: 2.53 µM

Cc1nc(Cl)c2[nH]nc(-c3ccc(Cl)cc3)c2n1
zone of inhibition at 1000 µg/mL [1]: 22 mm
IC50 [2]: 1.77 µM
zone of inhibition at 1000 µg/mL [3]: 25 mm
IC50 [4]: 1.52 µM
MIC ([5]; ATCC 14154, 24 h): 22 µg/mL (≈ 78.8 µM)
MIC [6]: 40 µg/mL (≈ 143 µM)
MIC [7]: 35 µg/mL (≈ 125 µM)
zone of inhibition at 1000 µg/mL [8]: 10 mm
zone of inhibition at 1000 µg/mL [10]: 15 mm
MIC [11]: 50 µg/mL (≈ 179 µM)
MIC [12]: 35 µg/mL (≈ 125 µM)
zone of inhibition at 1000 µg/mL [13]: 18 mm
zone of inhibition at 1000 µg/mL [14]: 12 mm
IC50 [15]: 1.62 µM

Nn1c(=S)[nH]c2c(-c3ccc(Cl)cc3)n[nH]c2c1=O
zone of inhibition at 1000 µg/mL [1]: 15 mm
IC50 [2]: 0.84 µM
zone of inhibition at 1000 µg/mL [3]: 25 mm
IC50 [4]: 1.33 µM
MIC ([5]; ATCC 14154, 24 h): 40 µg/mL (≈ 136 µM)
MIC [6]: 20 µg/mL (≈ 68.1 µM)
MIC [7]: 15 µg/mL (≈ 51.1 µM)
zone of inhibition at 1000 µg/mL [8]: 10 mm
MIC ([9]; ATCC 23554, 24 h): 40 µg/mL (≈ 136 µM)
zone of inhibition at 1000 µg/mL [10]: 15 mm
MIC [11]: 20 µg/mL (≈ 68.1 µM)
MIC [12]: 20 µg/mL (≈ 68.1 µM)
zone of inhibition at 1000 µg/mL [13]: 20 mm
zone of inhibition at 1000 µg/mL [14]: 8 mm
IC50 [15]: 1.55 µM

Cc1nn(C(=O)c2[nH]nc(-c3ccc(Cl)cc3)c2N)c(C)c1Cl
zone of inhibition at 1000 µg/mL [1]: 16 mm
IC50 [2]: 0.78 µM
zone of inhibition at 1000 µg/mL [3]: 20 mm
IC50 [4]: 1.1 µM
MIC ([5]; ATCC 14154, 24 h): 45 µg/mL (≈ 128 µM)
MIC [6]: 10 µg/mL (≈ 28.6 µM)
MIC [7]: 10 µg/mL (≈ 28.6 µM)
zone of inhibition at 1000 µg/mL [8]: 13 mm
MIC ([9]; ATCC 23554, 24 h): 50 µg/mL (≈ 143 µM)
zone of inhibition at 1000 µg/mL [10]: 16 mm
MIC [11]: 15 µg/mL (≈ 42.8 µM)
MIC [12]: 5 µg/mL (≈ 14.3 µM)
zone of inhibition at 1000 µg/mL [13]: 15 mm
zone of inhibition at 1000 µg/mL [14]: 15 mm
IC50 [15]: 0.97 µM
